Data published in ChEMBL document CHEMBL1201862, “PubChem BioAssay data set” (2004).
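Dose response: 5 concentrations. Exposure: 48 h. Format: 96-well plates. Endpoint: linear interpolation; highest concentration if not reached. Abbreviation: GI50, concentration required for 50% inhibition of growth.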 Activity calls are given as the source filed them. Cut-off read from the data, not from the text of the source: active = GI50 up to about 1.1 µM and inactive = higher.

Experiments:
Assay in all cases: NCI-60 cell line screen, 48 h
[1] = system: 786-0
[2] = system: A498
[3] = system: A549
[4] = system: BT-549
[5] = system: CAKI-1
[6] = system: HCT-116
[7] = system: HCT-15
[8] = system: MDA-MB-231
[9] = system: NCI-H23
[10] = system: NCI-H522
[11] = system: SF-295
[12] = system: SNB-19
[13] = system: T47D
[14] = system: TK-10
[15] = system: UACC-257
[16] = system: UO-31
[17] = system: LOX IMVI
[18] = system: SK-OV-3
[19] = system: SW-620
[20] = system: SNB-75

Row | Structure (SMILES) | GI50 [1] | GI50 [2] | GI50 [3] | GI50 [4] | GI50 [5] | GI50 [6] | GI50 [7] [µM] | GI50 [8] | GI50 [9] | GI50 [10] | GI50 [11] | GI50 [12] | GI50 [13] | GI50 [14] | GI50 [15] | GI50 [16] | GI50 [17] | GI50 [18] | GI50 [19] | GI50 [20]
1 | O=c1oc2ccc3ccccc3c2cc1-c1nnc(Nc2ccccc2)s1 | 16 µM (inactive) | 1.27 µM (inactive) | 31.4 µM (inactive) | 33.5 µM (inactive) | 34 µM (inactive) | 22.5 µM (inactive) | 51.6 | 18.2 µM (inactive) | 31 µM (inactive) | 0.986 µM (active) | 65.3 µM (inactive) | 38.4 µM (inactive) | 77.1 µM (inactive) | 16.9 µM (inactive) | > 100 µM (inactive) | 21.4 µM (inactive) | – | – | – | –
2 | N#Cc1c(O)nc2nn3c4ccc5ccccc5c4nnc3c2c1-c1ccc(Cl)cc1 | 2.59 µM (inactive) | 1.58 µM (inactive) | 4.57 µM (inactive) | 0.174 µM (active) | 2.29 µM (inactive) | 2.4 µM (inactive) | 1.89 | 5.36 µM (inactive) | 1.97 µM (inactive) | 1.5 µM (inactive) | 1.84 µM (inactive) | 3.13 µM (inactive) | 0.313 µM (active) | 5.89 µM (inactive) | 3.58 µM (inactive) | 2.38 µM (inactive) | 1.83 µM (inactive) | 3.3 µM (inactive) | 2.03 µM (inactive) | –
3 | Cc1c(-c2ccccc2)c(C#N)c2nnc(C(N)=O)c(N)n12 | > 100 µM (inactive) | > 100 µM (inactive) | > 100 µM (inactive) | > 100 µM (inactive) | > 100 µM (inactive) | > 100 µM (inactive) | > 100 | > 100 µM (inactive) | > 100 µM (inactive) | > 100 µM (inactive) | > 100 µM (inactive) | > 100 µM (inactive) | > 100 µM (inactive) | > 100 µM (inactive) | > 100 µM (inactive) | > 100 µM (inactive) | > 100 µM (inactive) | 70.5 µM (inactive) | > 100 µM (inactive) | –
4 | CSC1=C(SC)SC(=C2SC3=C(SC(=C4SCCS4)S3)S2)S1 | > 100 µM (inactive) | – | > 100 µM (inactive) | > 100 µM (inactive) | > 100 µM (inactive) | > 100 µM (inactive) | > 100 | > 100 µM (inactive) | > 100 µM (inactive) | > 100 µM (inactive) | > 100 µM (inactive) | > 100 µM (inactive) | > 100 µM (inactive) | > 100 µM (inactive) | > 100 µM (inactive) | > 100 µM (inactive) | > 100 µM (inactive) | > 100 µM (inactive) | > 100 µM (inactive) | > 100 µM (inactive)
5 | Cn1c2ccccc2c(=NNc2cccc(C(=O)O)c2)c2ccccc21 | 9.79 µM (inactive) | – | 5.75 µM (inactive) | 7.59 µM (inactive) | 25.1 µM (inactive) | 4.89 µM (inactive) | 15.3 | 11 µM (inactive) | 9.95 µM (inactive) | 5.05 µM (inactive) | 16 µM (inactive) | 6.84 µM (inactive) | 5.79 µM (inactive) | 15.5 µM (inactive) | 28.5 µM (inactive) | 14.3 µM (inactive) | 5.05 µM (inactive) | 14.8 µM (inactive) | 5.64 µM (inactive) | 23.9 µM (inactive)
6 | NC(=O)NCCCC(NC(=O)OCCCCCCn1ccc(=O)[nH]c1=O)C(=O)O (stereo not drawn) | > 100 µM (inactive) | – | > 100 µM (inactive) | > 100 µM (inactive) | > 100 µM (inactive) | > 100 µM (inactive) | > 100 | > 100 µM (inactive) | > 100 µM (inactive) | – | > 100 µM (inactive) | > 100 µM (inactive) | > 100 µM (inactive) | > 100 µM (inactive) | > 100 µM (inactive) | > 100 µM (inactive) | > 100 µM (inactive) | > 100 µM (inactive) | > 100 µM (inactive) | > 100 µM (inactive)
7 | CC1=NN(c2nc(N)nc(CS(C)(=O)=O)n2)C(C)(C)C1 | > 100 µM (inactive) | > 100 µM (inactive) | – | > 100 µM (inactive) | > 100 µM (inactive) | > 100 µM (inactive) | > 100 | > 100 µM (inactive) | > 100 µM (inactive) | – | > 100 µM (inactive) | > 100 µM (inactive) | > 100 µM (inactive) | > 100 µM (inactive) | > 100 µM (inactive) | > 100 µM (inactive) | > 100 µM (inactive) | > 100 µM (inactive) | > 100 µM (inactive) | > 100 µM (inactive)
8 | CC1(C)OC(=O)C2(O1)C(=O)C1CCCCC12 (stereo not drawn) | 35.6 µM (inactive) | 4.78 µM (inactive) | 26.9 µM (inactive) | 23.9 µM (inactive) | 10.2 µM (inactive) | > 100 µM (inactive) | 86.9 | 3.84 µM (inactive) | > 100 µM (inactive) | 12 µM (inactive) | > 100 µM (inactive) | 8.39 µM (inactive) | > 100 µM (inactive) | 70.5 µM (inactive) | 40 µM (inactive) | 82.2 µM (inactive) | – | 8.51 µM (inactive) | > 100 µM (inactive) | –
9 | CCn1nc2c3c(ncn3C(C)(C)O2)c1=O | > 100 µM (inactive) | > 100 µM (inactive) | > 100 µM (inactive) | > 100 µM (inactive) | > 100 µM (inactive) | > 100 µM (inactive) | > 100 | > 100 µM (inactive) | > 100 µM (inactive) | > 100 µM (inactive) | > 100 µM (inactive) | > 100 µM (inactive) | > 100 µM (inactive) | > 100 µM (inactive) | > 100 µM (inactive) | > 100 µM (inactive) | > 100 µM (inactive) | > 100 µM (inactive) | > 100 µM (inactive) | –
10 | O=Cc1c2n(c3ccccc13)N[C@@](Cc1ccc(O)cc1)(C(=O)O)C2 | 89.1 µM (inactive) | > 100 µM (inactive) | > 100 µM (inactive) | > 100 µM (inactive) | > 100 µM (inactive) | 38.3 µM (inactive) | 47.3 | > 100 µM (inactive) | > 100 µM (inactive) | 25.5 µM (inactive) | 63.2 µM (inactive) | > 100 µM (inactive) | 82.4 µM (inactive) | > 100 µM (inactive) | 31 µM (inactive) | > 100 µM (inactive) | 55.2 µM (inactive) | 77.3 µM (inactive) | 56.8 µM (inactive) | –
11 | CCOC(=O)c1cc2cc3c4c(c2oc1=O)CCCN4CCC3 | 40 µM (inactive) | 17.6 µM (inactive) | 21.5 µM (inactive) | 31.4 µM (inactive) | 47.3 µM (inactive) | 27 µM (inactive) | 25.2 | 22.3 µM (inactive) | 30.1 µM (inactive) | 19.4 µM (inactive) | 40.4 µM (inactive) | 42.6 µM (inactive) | 15.2 µM (inactive) | 21.6 µM (inactive) | 49.5 µM (inactive) | 25.9 µM (inactive) | 26.1 µM (inactive) | – | 67.9 µM (inactive) | –
12 | C/C1=C/C[C@@H](/C(C)=C/c2csc(C)n2)OC(=O)C[C@H](O)C(C)(C)C(=O)[C@H](C)[C@@H](O)[C@@H](C)CCC1 [EPOTHILONE D] | < 0.0001 µM (active) | – | < 0.0001 µM (active) | < 0.0001 µM (active) | < 0.0001 µM (active) | < 0.0001 µM (active) | < 0.0001 | < 0.0001 µM (active) | < 0.0001 µM (active) | < 0.0001 µM (active) | < 0.0001 µM (active) | < 0.0001 µM (active) | < 0.0001 µM (active) | 0.000192 µM (active) | – | < 0.0001 µM (active) | < 0.0001 µM (active) | < 0.0001 µM (active) | < 0.0001 µM (active) | < 0.0001 µM (active)
13 | Cc1ccc2nc(-c3ccccc3)cc(=O)n2c1 | > 100 µM (inactive) | – | > 100 µM (inactive) | > 100 µM (inactive) | – | > 100 µM (inactive) | > 100 | > 100 µM (inactive) | > 100 µM (inactive) | > 100 µM (inactive) | > 100 µM (inactive) | > 100 µM (inactive) | 38.6 µM (inactive) | > 100 µM (inactive) | > 10 µM (inactive) | – | – | > 100 µM (inactive) | > 100 µM (inactive) | > 100 µM (inactive)
14 | Cc1ccc(S(=O)(=O)NC(=O)N[C@@H](Cc2c[nH]cn2)C(=O)O)cc1 | > 100 µM (inactive) | – | > 100 µM (inactive) | > 100 µM (inactive) | – | > 100 µM (inactive) | > 100 | > 100 µM (inactive) | > 100 µM (inactive) | > 100 µM (inactive) | > 100 µM (inactive) | > 100 µM (inactive) | > 100 µM (inactive) | > 100 µM (inactive) | > 100 µM (inactive) | > 100 µM (inactive) | > 100 µM (inactive) | > 100 µM (inactive) | > 100 µM (inactive) | > 100 µM (inactive)
15 | O=S(=O)(Nc1ccc2ccc3cccc4ccc1c2c34)c1ccccc1 | 29 µM (inactive) | – | 52.8 µM (inactive) | > 100 µM (inactive) | 6 µM (inactive) | 30.8 µM (inactive) | 12.9 | 30.8 µM (inactive) | 96.6 µM (inactive) | 4.27 µM (inactive) | 10.4 µM (inactive) | 85.5 µM (inactive) | 28.4 µM (inactive) | 38.2 µM (inactive) | 58.7 µM (inactive) | 35.1 µM (inactive) | 40.6 µM (inactive) | 58.3 µM (inactive) | 30.1 µM (inactive) | 55.7 µM (inactive)
